According to paper PMC7222207, “Characterization of a CholesteroNitrone (ISQ-201), a Novel Drug Candidate for the Treatment of Ischemic Stroke” (Antioxidants, 2020):

Key:
[1] = test system: lipid peroxidation and ROS levels; parameters: method as in PMID 26241908; conditions: preliminary results; cited from earlier work
[2] = test system: transient forebrain ischemia, hippocampal CA1 and cortical neurons; assay: Global cerebral ischemia (4VO), neuronal apoptosis by TUNEL assay; assay type: in vivo, male Wistar rats; parameters: maximum neuroprotection (Emax), TUNEL assay: dose or concentration left out as unconfirmed; conditions: for maximum neuroprotection (Emax), TUNEL assay: iv at reperfusion onset
Procedure: Transient forebrain ischemia was induced in adult male Wistar rats (10–12 weeks, Charles River) by the standard four-vessel occlusion model (4VO) described previously. Briefly, both vertebral arteries were irreversibly occluded by electrocoagulation under anesthesia, with a mixture of atropine, ketamine, and diazepam (0.25, 62.5, and 5 mg/kg, respectively) delivered through intraperitoneal injection. After 24 h, ischemia was induced by carotid occlusion with atraumatic clips, for 15 min, and then the clips were removed from the carotid arteries to allow reperfusion. Body temperature was maintained at 37 °C during the surgical procedure. The animals were studied after 5 days of reperfusion (R5d) after which they were sacrificed. Sham control animals were prepared in the same way, without carotid occlusion. We performed a power analysis (http://www.biomath.info/power/ttest.htm) to determine the sample size. Significance level and statistical power were set at 0.05 and 0.8 (80%), respectively, which afforded a sample size of […] subjects per group. The treatments were administered with concealed allocation, and in randomized order, according to a computer-generated randomization program. Ischemic animals were treated with a vehicle solution (saline/ethanol, 90:10 vol/vol) or nitrone ISQ-201, dissolved in a vehicle solution through a single intravenous tail injection, when the carotid arteries were unclamped for reperfusion. In therapeutic window experiments, the animals were treated once at the reperfusion onset or at the set reperfusion time points, after ischemia. For the administration, at 6 h and 48 h of reperfusion after ischemia, the animals were anesthetized with isoflurane for 2–3 min and 5 min, respectively, prior to the treatment administration. An independent researcher prepared the treatments for each animal, according to the randomization schedule. Data of each experimental group were normalized to each vehicle control group. All procedures associated with animal experiments were approved by the Animal Care Ethics Committee of the Hospital Universitario Ramón y Cajal (Madrid, Spain, code no. 06/2015) and were performed according to the ARRIVE guidelines.
After 5 days of reperfusion (R5d), the animals were euthanized by transcardiac perfusion, under deep anesthesia. A washout step with 200 mL of saline via the left ventricle was followed by a fixation with 4% (w/v) paraformaldehyde solution in PBS. Brains were then removed and post-fixed in the same solution, overnight at 4 °C, sequentially washed with 10%, 20%, and 30% (w/v) sucrose in PBS, and embedded in Tissue-Tek O.C.T. (Sakura Finetek), before freezing at −80 °C. Brain coronal sections containing the hippocampus were obtained by cryostat sectioning at the level of interaural line +5.7 ± 0.2 mm on real capillary gap microscope slides (Dako).
Apoptotic neurons within the brain sections were detected by using the Terminal deoxynucleotidyl transferase-mediated dUTP Nick-End Labeling (TUNEL) assay (Promega). For this test, 5-µm-thick coronal cryostat brain sections containing the dorsal hippocampal formation were obtained, as described above, and post-fixed with 4% formaldehyde in PBS for 5 min, at room temperature. After washing in PBS for three times, the sections were permeabilized with 0.1 M sodium citrate, pH 6.0, for 1 min at 95 °C, then quickly cooled in ice and washed in PBS for 5 min at room temperature. […]

[3] = test system: transient forebrain ischemia, cortex and hippocampal CA1; assay: Global cerebral ischemia (4VO), dose-response curve of neuroprotection; assay type: in vivo, male Wistar rats; conditions: for EC50 of neuroprotection from dose-response curve: 5 days of reperfusion
Procedure: Transient forebrain ischemia was induced in adult male Wistar rats (10–12 weeks, Charles River) by the standard four-vessel occlusion model (4VO) described previously. Briefly, both vertebral arteries were irreversibly occluded by electrocoagulation under anesthesia, with a mixture of atropine, ketamine, and diazepam (0.25, 62.5, and 5 mg/kg, respectively) delivered through intraperitoneal injection. After 24 h, ischemia was induced by carotid occlusion with atraumatic clips, for 15 min, and then the clips were removed from the carotid arteries to allow reperfusion. Body temperature was maintained at 37 °C during the surgical procedure. The animals were studied after 5 days of reperfusion (R5d) after which they were sacrificed. Sham control animals were prepared in the same way, without carotid occlusion. We performed a power analysis (http://www.biomath.info/power/ttest.htm) to determine the sample size. Significance level and statistical power were set at 0.05 and 0.8 (80%), respectively, which afforded a sample size of […] subjects per group. The treatments were administered with concealed allocation, and in randomized order, according to a computer-generated randomization program. […]
Figure 2 Dose-response curve of ISQ-201. Ischemic animals were treated with a vehicle or ISQ-201 (range 0.01–0.1 mg/kg) by an intravenous injection, at the onset of reperfusion after global cerebral ischemia, and ISQ-201 effect was evaluated by assessing the neuronal death at 5 days of reperfusion (R5d). […] Fluoro-Jade-positive dead neurons were visualized by fluorescence microscopy (in green) in the hippocampal CA1 (CA1) and cortical (C) regions (images), and counted, as described in Materials and Methods (bar graph). (b) Brain sections as in (a) were used for apoptosis detection by TUNEL assay after fixation, and were visualized by fluorescence microscopy (in green) in the CA1 and C regions (images). TUNEL-positive cells were counted in the CA1 and C regions, as described in the Materials and Methods (bar graph). […]

## CC(C)[C@H]1CC[C@H]2[C@@H]3CCC4=C/C(=[N+](\C)[O-])CC[C@]4(C)[C@H]3CC[C@]12C [ISQ-201]
[1]
  effect on lipid peroxidation and ROS levels: decreased
[2]; 0.05 mg/kg iv given at 48 h postreperfusion, evaluated at 5 days
  cell apoptosis vs vehicle, therapeutic window: did not show significant differences
[2]; 0.05 mg/kg iv given up to and including 6 h postreperfusion, hippocampal and cortical regions, evaluated at 5 days
  apoptosis-positive cells vs vehicle, therapeutic window: significantly reduced
[2]; 0.05 and 0.1 mg/kg iv at reperfusion onset, CA1 and cortical regions, 5 days of reperfusion
  apoptotic cells vs vehicle group: significant reduction
[2]; cortex, most potent concentration, 5 days of reperfusion
  maximum neuroprotection (Emax), TUNEL assay: 81%
[2]; hippocampal CA1, most potent concentration, 5 days of reperfusion
  maximum neuroprotection (Emax), TUNEL assay: 35%
[3]; cortex, iv 0.01–0.1 mg/kg at reperfusion onset
  EC50 of neuroprotection from dose-response curve: 0.015 mg/kg
[3]; hippocampal CA1, iv 0.01–0.1 mg/kg at reperfusion onset
  EC50 of neuroprotection from dose-response curve: 0.025 mg/kg
[3]; iv, doses 0.01–0.1 mg/kg, after 5 days of reperfusion
  most effective dose in decreasing neuronal death and apoptosis: 0.05 mg/kg
